Calls of active or inactive are those of the source. No cut-off for these calls is given here.

The subject of one assay is Rattus norvegicus. Kind of assay: Antiallergic activity in sc dosed Wistar rat assessed as inhibition of passive cutaneous anaphylaxis at Tmax. Format: functional.
`O=C1C(O)=C([N+](=O)[O-])C(=O)c2ccc(Br)cc21`: the ED50 is over 500 µmol/kg. Same read-out and setting: the value for `O=C1C([N+](=O)[O-])=C(O)C(=O)c2c(O)cccc21` was over 500 µmol/kg; that for `Cc1cccc2c1C(=O)C(O)=C([N+](=O)[O-])C2=O` was 76.2 µmol/kg.

Consider `Cc1ccc2c(c1)C(=O)C([N+](=O)[O-])=C(O)C2=O`, for which the ED50 was found to be 63.9 µmol/kg.

As for `CCc1cc2c(cc1CC)C(=O)C([N+](=O)[O-])=C(O)C2=O`, the ED50 is 27.3 µmol/kg. Still for that read-out and setting: the same measure for `COc1ccc2c(c1)C(=O)C(O)=C([N+](=O)[O-])C2=O`: 51.3 µmol/kg; for `O=C1C(O)=C([N+](=O)[O-])C(=O)c2cc3c(cc21)CCCC3`: 7.3 µmol/kg. On the same count and under the same terms, the value for `CCOc1ccc2c(c1)C(=O)C(O)=C([N+](=O)[O-])C2=O` was 68.2 µmol/kg; that for `Cc1ccc2c(c1)C(=O)C(O)=C([N+](=O)[O-])C2=O` was 181 µmol/kg; that for `O=C1C(O)=C([N+](=O)[O-])C(=O)c2ccccc21` was 141 µmol/kg.

Take `O=C1C(O)=C([N+](=O)[O-])C(=O)c2ccc(-c3ccccc3)cc21`: the 50% effective dose (ED50) was over 500 µmol/kg. On the same count and under the same terms, the same measure for `O=C(O)c1cc(=O)c2c(OCC(O)COc3cccc4oc(C(=O)O)cc(=O)c34)cccc2o1` [CROMOLYN SODIUM]: 13.1 µmol/kg; for `O=C1C(O)=C([N+](=O)[O-])C(=O)c2ccc(F)cc21`: over 500 µmol/kg. For the molecule `Cc1cc2c(cc1C)C(=O)C([N+](=O)[O-])=C(O)C2=O`, the ED50 was 11 µmol/kg. Still for that read-out and setting: the value for `COc1cc2c(cc1OC)C(=O)C([N+](=O)[O-])=C(O)C2=O` was 42.8 µmol/kg.

Another assay deals with Rattus norvegicus. Briefly: Antiallergic activity in Wistar rat assessed as inhibition of passive cutaneous anaphylaxis up to 500 uM/kg, sc. The format is functional, organism-based.
Take `CC1(C)C(=O)C([N+](=O)[O-])=C(O)c2ccccc21`: the inhibition result was “inactive”. Same read-out and setting: the same measure for `Cc1ccc2c(c1)C(O)=C([N+](=O)[O-])C(=O)C2(C)C`: “inactive”; for `Cc1c(O)c([N+](=O)[O-])c(O)c2ccccc12`: “inactive”. As to `Cc1cccc2c1C(C)(C)C(=O)C([N+](=O)[O-])=C2O`, the inhibition result is “inactive”.

The subject of the next assay is Rattus norvegicus. Kind of assay: Antiallergic activity in po dosed Wistar rat assessed as inhibition of passive cutaneous anaphylaxis administered 10 mins prior to antigen-challenge. The format is functional.
As to `O=C1C(O)=C([N+](=O)[O-])C(=O)c2cc3c(cc21)CCCC3`, the ED50 turned out to be 100 µmol/kg. Same read-out and setting: the same measure for `Cc1cc2c(cc1C)C(=O)C([N+](=O)[O-])=C(O)C2=O`: 100 µmol/kg.

A word on the ED50: it is the dose that gives a 50% effect, or the effect in half of the subjects.

Values taken from ChEMBL document CHEMBL3244207, “Synthesis and antiallergic activity of 2-hydroxy-3-nitro-1,4-naphthoquinones” (1977).
